According to patent publication US20260165954A1, “BIO[…]-AND-RESERVOIR SYSTEM FOR THE PULSED DELIVERY OF BIOACTIVE AGENTS” (University of Mississippi, priority 2022, published 2026):

Columns and labels:
[1] = In vitro release of DOI from single-layered CAPP films; format: physicochemical; settings: 0.1 mm single-layered CAPP films; FIG. 12A
Source text: (§1) FIGS. 12A-12G show in vivo delivery of 5HT2A agonist DOI from single- and multi-layer CAPP films. (FIG. 12A) In vitro cumulative release of DOI from 0.1 mm CAPP films. (FIG. 12B) Scheme of subcutaneous implantation of 0.1 mm DOI-loaded CAPP films and experimental time course. Pharmacokinetics of DOI released from subcutaneously implanted, single-layered CAPP films in (FIG. 12C) plasma (n=4) and (FIG. 12D) brain (n=4). (FIG. 12E) Scheme of subcutaneous implantation of multilayered CAPP films and experimental time course. Pharmacokinetics of DOI released from multilayered CAPP films in (FIG. 12F) plasma (n=4), and (FIG. 12G) brain (n=4).
(§2) To confirm that 5HT2A agonists could be effectively delivered in vivo from an implantable drug delivery system, the encapsulation and release of DOI (2,5-dimethoxy-4-iodoamphetamine) from CAPP films was investigated. DOI release was first observed from single-layered CAPP films. […] The DOI-loaded, single-layered films were next implanted subcutaneously in CD-1 mice (50:50 M:F mice) and monitored the pharmacokinetics and biodistribution of DOI after implantation (FIGS. 12B-12D). […] After this initial optimization, multilayered CAPP films with DOI encapsulated in the ‘release’ layers were generated and implanted them subcutaneously in CD-1 mice (50:50 M:F mice; FIG. 12E). […]

[2] = Pharmacokinetics of DOI from subcutaneously implanted single-layered CAPP films; format: in vivo; settings: CD-1 mice
Source text: as §1, §2

[3] = Pharmacokinetics of DOI from subcutaneously implanted multilayered CAPP films; format: in vivo; settings: subcutaneous multilayered CAPP films, CD-1 mice
Source text: as §1, §2

Compound: COc1cc(CC(C)N)c(OC)cc1I (centres unmarked) [DOI, 2,5-dimethoxy-4-iodoamphetamine]
- in vitro release kinetics [1]: closely mimicked that of rhodamine and FITC
- time of peak plasma concentration post-implantation ([2]; subcutaneous 0.1 mm DOI-loaded single-layered CAPP films, plasma, FIG. 12C): 2 h
- brain distribution and clearance ([2]; subcutaneous single-layered CAPP films, brain, FIG. 12D): rapidly accumulated in the brain after which it was cleared with similar kinetics to the blood plasma
- absorption and tissue accumulation from the first 'release' layer [3]: rapid absorption of DOI and accumulation in the brain (as well as kidneys and liver)
- time of second pulse in plasma and organs after the first pulse ([3]; FIGS. 12F-12G): ~20 h
